target: T1, human PPARγ (Homo sapiens, UniProt P37231); assay: PPARγ agonistic activity: luciferase reporter assay in PPARγ:RXRα:4ERPP/CHO-K1 cells; format: cell-based; settings: CHO-K1, test compound 10^−6 M; luciferase activity of control compound X (1 μM) = 100%, non-administration group = 0%
T1 construct: expressed in transfected cells
T1 sequence (P37231 1-477 isoform P37231-2): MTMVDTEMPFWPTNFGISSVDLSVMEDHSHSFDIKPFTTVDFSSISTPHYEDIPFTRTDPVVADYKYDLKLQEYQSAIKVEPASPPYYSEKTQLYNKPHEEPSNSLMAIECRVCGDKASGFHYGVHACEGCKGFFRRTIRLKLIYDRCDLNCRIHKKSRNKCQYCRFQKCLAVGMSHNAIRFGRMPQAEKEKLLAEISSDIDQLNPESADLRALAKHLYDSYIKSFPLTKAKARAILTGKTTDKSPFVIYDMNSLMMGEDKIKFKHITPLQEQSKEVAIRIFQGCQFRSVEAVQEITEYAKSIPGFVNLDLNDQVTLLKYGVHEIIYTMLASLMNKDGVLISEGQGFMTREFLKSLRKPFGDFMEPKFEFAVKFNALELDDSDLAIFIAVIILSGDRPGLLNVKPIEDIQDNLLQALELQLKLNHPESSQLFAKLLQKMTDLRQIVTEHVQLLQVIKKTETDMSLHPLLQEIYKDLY
T1 sequence (P19793 1-462 partner): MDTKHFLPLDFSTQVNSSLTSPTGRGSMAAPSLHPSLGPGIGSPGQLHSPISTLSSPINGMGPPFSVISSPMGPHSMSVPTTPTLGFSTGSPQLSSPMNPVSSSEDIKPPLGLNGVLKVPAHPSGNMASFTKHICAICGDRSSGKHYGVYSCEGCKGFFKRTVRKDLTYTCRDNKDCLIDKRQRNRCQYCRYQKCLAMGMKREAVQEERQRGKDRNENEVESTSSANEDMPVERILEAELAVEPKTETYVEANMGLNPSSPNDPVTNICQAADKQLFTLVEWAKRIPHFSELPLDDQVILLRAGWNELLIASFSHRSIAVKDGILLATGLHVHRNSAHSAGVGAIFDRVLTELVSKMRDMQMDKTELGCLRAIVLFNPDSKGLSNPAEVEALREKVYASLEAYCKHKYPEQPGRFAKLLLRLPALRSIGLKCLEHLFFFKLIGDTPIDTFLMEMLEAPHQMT
Source text: A CHO-K1 cell cultured in a 150 cm^2 cell culture flask [manufactured by Corning Costar Corporation, USA] comprising Ham's F12 medium [manufactured by INVITROGEN, USA] supplemented with 10% fetal bovine serum [manufactured by INVITROGEN, USA] was taken off by treating with 0.5 g/L trypsin-0.2 g/L EDTA (ethylenediamine tetraacetate) [manufactured by Life Technologies, Inc., USA], and then the cell was washed with PBS (Phosphate-buffered saline) [manufactured by INVITROGEN, USA], centrifuged (1000 rpm, 5 minutes) and suspended in PBS. Subsequently, DNA was introduced into the cell under the conditions shown below using GENE PULSER [manufactured by Bio-Rad Laboratories, USA].
Namely, to a cuvette having a 0.4 cm gap were added 8×10^6 cells and 10 μg of plasmid pVgRXR2-hPPARγ obtained in the above-mentioned (4) and 10 μg of reporter plasmid pGL3-4ERPP-TK neo obtained in the above-mentioned (3), which was subjected to electroporation at the voltage of 0.25 kV under the capacitance of […] Subsequently, the cell was transferred into a F12 medium comprising 10% fetal bovine serum and cultured for 24 hours, and then the cell was taken off again and centrifuged. Then, the pellet was suspended in Ham's F12 medium comprising 10% fetal bovine serum supplemented with 500 μg/ml of Geneticin [manufactured by INVITROGEN, USA] and 250 μg/ml of Zeocin [manufactured by INVITROGEN, USA]. The obtained suspension was diluted to the density of 10^4 cells/ml and inoculated in a 96-well plate [manufactured by Corning Costar Corporation, USA], which was cultured in a CO2 gas incubator at 37° C., whereby obtaining a Geneticin- and Zeocin-resistant transformant.
Subsequently, after the transformed cell line thus obtained was cultured in a 24-well plate [manufactured by Corning Costar Corporation, USA], a cell line in which expression of the luciferase was induced, i.e., PPARγ:RXRα:4ERPP/CHO-K1 cell was selected by the addition of 10 μM pioglitazone hydrochloride.
PPARγ:RXRα:4ERPP/CHO-K1 cells obtained in the above-mentioned (5) were cultured in F12 medium [manufactured by INVITROGEN, USA] containing 10% fetal bovine serum [manufactured by MOREGATE, Australia], seeded in a 96 well half-area white plate [manufactured by Corning Coster Corporation, USA] at 5×10^3 cells/well, and cultured in a CO2 incubator at 37° C. overnight.
Then, the medium was removed from the 96 well half-area white plate, hamF12 medium containing 0.1% fatty acid-free bovine serum albumin (BSA) (45 μl) and a test compound (5 μl) were added, and the mixture was cultured in the CO2 incubator at 37° C. for 1 day. After removing the medium, Picagene 7.5 [manufactured by Dai Nippon Inki, Japan] (20 μl) diluted 2-fold with HBSS (HANKS' BALANCED SALT SOLUTION) [manufactured by BIO […], USA] was added, and the mixture was stirred. Using 1420 ARVO Multilabel Counter [manufactured by PerkinElmer, USA], luciferase activity was measured. The percentage (%) was calculated from the luciferase activity of the test compound when the luciferase activity of the control compound (compound X: 5-[3-(4-{[2-(2-furyl)-5-methyl-1,3-oxazol-4-yl]methoxy}-3-methoxyphenyl)propyl]-1,3-oxazolidine-2,4-dione) (1 μM) was taken as 100% and the luciferase activity of the test compound non-administration group was taken as 0%.

Row | Structure (SMILES) | activation at 1 µM [%]
1 | CCCc1c(Cc2ccc(-c3ccccc3-c3noc(=O)[nH]3)cc2)c(=O)n([C@H]2CC[C@H](OCC(C)(C)O)CC2)c2ccnn12 [Example 413, 4-[trans-4-(2-Hydroxy-2-methylpropoxy)cyclohexyl]-6-{[2′-(5-oxo-4,5-dihydro-1,2,4-oxadiazol-3-yl)biphenyl-4-yl]methyl}-7-propylpyrazolo[1,5-a]pyrimidin-5(4H)-one] | 25
2 | CCCc1c(Cc2ccc(-c3ccccc3-c3noc(=O)[nH]3)cc2)c(=O)n([C@H]2CC[C@H](OCC(C)O)CC2)c2ccnn12 (relative stereo) [Example 419, 4-[trans-4-(2-hydroxypropoxy)cyclohexyl]-6-{[2′-(5-oxo-4,5-dihydro-1,2,4-oxadiazol-3-yl)biphenyl-4-yl]methyl}-7-propylpyrazolo[1,5-a]pyrimidin-5(4H)-one] | 21
3 | CCCc1c(Cc2ccc(-c3ccccc3-c3noc(=O)[nH]3)cc2)c(=O)n([C@H]2CC[C@H](OCC(C)O)CC2)c2ccnn12 (single isomer, unassigned) [Example 440, 4-[trans-4-(2-hydroxypropoxy)cyclohexyl]-6-{[2′-(5-oxo-4,5-dihydro-1,2,4-oxadiazol-3-yl)biphenyl-4-yl]methyl}-7-propylpyrazolo[1,5-a]pyrimidin-5(4H)-one (optically active form, retention time: short)] | 16

The next lines start with the values.

Row | activation at 1 µM [%] | Structure (SMILES)
4 | 28 | CCCc1c(Cc2ccc(-c3ccccc3-c3noc(=O)[nH]3)cc2F)c(=O)n([C@H]2C[C@@H](OCC(C)(C)O)C2)c2nc(C)nn12 [Example 404, 6-{[3-fluoro-2′-(5-oxo-4,5-dihydro-1,2,4-oxadiazol-3-yl)biphenyl-4-yl]methyl}-4-[cis-3-(2-hydroxy-2-methylpropoxy)cyclobutyl]-2-methyl-7-propyl[1,2,4]triazolo[1,5-a]pyrimidin-5(4H)-one]
5 | 17 | CCCc1c(Cc2ccc(-c3ccccc3-c3noc(=O)[nH]3)cc2F)c(=O)n([C@H]2C[C@H](OCC(C)(C)O)C2)c2nc(C)nn12 [Example 403, 6-{[3-fluoro-2′-(5-oxo-4,5-dihydro-1,2,4-oxadiazol-3-yl)biphenyl-4-yl]methyl}-4-[trans-3-(2-hydroxy-2-methylpropoxy)cyclobutyl]-2-methyl-7-propyl[1,2,4]triazolo[1,5-a]pyrimidin-5(4H)-one]
6 | 32 | CCCc1c(Cc2ccc(-c3ccccc3-c3noc(=O)[nH]3)cc2)c(=O)n([C@H]2CC[C@H](OCC(C)(C)O)CC2)c2ncnn12 [Example 381, 4-[trans-4-(2-hydroxy-2-methylpropoxy)cyclohexyl]-6-{[2′-(5-oxo-4,5-dihydro-1,2,4-oxadiazol-3-yl)biphenyl-4-yl]methyl}-7-propyl[1,2,4]triazolo[1,5-a]pyrimidin-5(4H)-one]
7 | 18 | CCCc1c(Cc2ccc(-c3ccccc3-c3noc(=O)[nH]3)cc2F)c(=O)n(C2CCOC2)c2nc(C)nn12 (stereo not shown) [Example 120, 6-{[3-fluoro-2′-(5-oxo-4,5-dihydro-1,2,4-oxadiazol-3-yl)biphenyl-4-yl]methyl}-2-methyl-7-propyl-4-(tetrahydrofuran-3-yl)[1,2,4]triazolo[1,5-a]pyrimidin-5(4H)-one]
8 | 37 | CCCc1c(Cc2ccc(-c3ccccc3-c3noc(=O)[nH]3)cc2)c(=O)n([C@H]2CC[C@@H](OCC(C)(C)O)CC2)c2ncnn12 [Example 158, 4-[cis-4-(2-hydroxy-2-methylpropoxy)cyclohexyl]-6-{[2′-(5-oxo-4,5-dihydro-1,2,4-oxadiazol-3-yl)biphenyl-4-yl]methyl}-7-propyl[1,2,4]triazolo[1,5-a]pyrimidin-5(4H)-one]

target: T2, human AT1 receptor (Homo sapiens, UniProt P30556); assay: AT1 receptor antagonistic activity: [125I]-angiotensin II binding assay on human AT1 receptor-expressing CHO-K1 cellular membrane fraction; settings: 22.5 pM [125I]-angiotensin II, 1 hr room temperature
T2 construct: expressed in transfected cells; membrane fraction
T2 sequence (P30556 1-359): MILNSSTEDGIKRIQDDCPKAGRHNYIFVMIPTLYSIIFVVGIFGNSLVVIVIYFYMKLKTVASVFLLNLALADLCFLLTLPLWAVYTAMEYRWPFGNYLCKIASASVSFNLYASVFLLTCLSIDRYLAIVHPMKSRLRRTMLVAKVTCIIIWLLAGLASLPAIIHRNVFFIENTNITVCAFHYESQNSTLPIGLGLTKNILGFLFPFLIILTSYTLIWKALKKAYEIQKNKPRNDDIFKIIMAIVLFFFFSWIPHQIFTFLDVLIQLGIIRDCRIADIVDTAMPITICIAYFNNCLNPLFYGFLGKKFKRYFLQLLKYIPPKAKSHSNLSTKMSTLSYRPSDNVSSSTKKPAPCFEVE
Experimental: CHO-K1 cell (RIKEN, Japan) capable of stable expression of human AT1 receptor was cultured, recovered, suspended in homogenize buffer (10 mM NaHCO3 (pH 7.4), 5 mM EDTA, 1× Complete EDTA free) [manufactured by Roche, Switzerland], and homogenized. The homogenate was centrifuged at low-speed (900×g, 10 min, 4° C.), and the supernatant was recovered and ultracentrifuged (90,000×g, 1 hr, 4° C.). The supernatant was discarded, and the pellets were resuspended in suspension buffer (50 mM Tris (pH 7.4), 1 mM EDTA, 1× Complete EDTA free).
(9 μg) in the presence of AT1 membrane and test compound in 100 μl, (total reaction volume) of reaction buffer (50 mM Tris (pH 7.4), 10 mM MgCl2 supplemented or not supplemented with 0.3 mg/mL fatty acid-free bovine serum albumin [manufactured by Wako Pure Chemical Industries, Ltd., Japan]). The reaction mixture was incubated in 96 well polypropylene plate for 1 hr at room temperature, and the reaction was quenched by rapid filtration (96 well cell harvester) through a GF/C filter treated with wash buffer (50 mM Tris (pH 7.4)). Subsequently, the filter was washed 5 times with 0.3 mL of ice-cooled wash buffer. […] Total binding was measured in the presence of 1% DMSO and nonspecific binding was measured in the presence of […] Candesartan.

Row | IC50 [nM] | Structure (SMILES)
9 | 1.2 | CCCCc1c(Cc2ccc(-c3ccccc3-c3noc(=O)[nH]3)cc2)c(=O)n(C2CCOC(C)C2)c2ncnn12 (stereo not shown) [Example 161, 7-butyl-4-(2-methyltetrahydro-2H-pyran-4-yl)-6-{[2′-(5-oxo-4,5-dihydro-1,2,4-oxadiazol-3-yl)biphenyl-4-yl]methyl}[1,2,4]triazolo[1,5-a]pyrimidin-5(4H)-one]
10 | 1.8 | CCCc1c(Cc2ccc(-c3ccccc3-c3noc(=O)[nH]3)cc2)c(=O)n([C@H]2CC[C@H](OC(C)C(C)(C)O)CC2)c2ncnn12 (single isomer, unassigned) [Example 318, 4-[trans-4-(2-hydroxy-1,2-dimethylpropoxy)cyclohexyl]-6-{[2′-(5-oxo-4,5-dihydro-1,2,4-oxadiazol-3-yl)biphenyl-4-yl]methyl}-7-propyl[1,2,4]triazolo[1,5-a]pyrimidin-5(4H)-one (retention time: short)]

Reference: patent US8283353B2, “Fused ring compound and use thereof” (Takeda Pharmaceutical Company Limited, priority 2009, dated 2012)
